PMC6672714 (Frontiers in Physiology, 2019)
Entries after “also recorded” stand apart in the source; their conditions may differ. Where two headings read alike, the source gives them in different places. No end group written: not given here.

Assays:
[1] = test system: intact pituitaries (GnRH1-induced CART secretion); test: inhibition of GnRH1-induced CART secretion in intact pituitaries, Western blot; type: cell-based, chicken; conditions: GnRH1 5 nM, 4 h, N = 3
Protocol: (§1) As described in our recent study ([Huang et al., 2014]), the intact anterior pituitaries collected from 1-week-old male chicks were washed with PBS and placed on a 48-well plate (NUNC) supplemented with 400 μl serum-free Medium 199 (Invitrogen). After 1-h incubation at 37°C, the medium was replaced by 300 μl serum-free Medium 199 containing different concentrations of chicken GnRH1 or GnRH2 (0.1–100 nM) and incubated for 4 h.
One representative set of Western blotting is shown at the bottom.

[2] = test system: cultured chick pituitary cells (GnRH1-induced CART mRNA); type: cell-based, chicken; conditions: GnRH1 10 nM, 24 h, N = 4
Protocol: (§2) As described in our recent studies ([Huang et al., 2014]; [Mo et al., 2015]), anterior pituitaries collected from 1-week-old chicks were sliced and digested by 0.25% trypsin at 37°C for 20 min. The dispersed pituitary cells were cultured at a density of 5 × 10^5 cells/well in Medium 199 supplemented with 15% fetal bovine serum in a Corning Cell BIND 48-well plates (Corning, Tewksbury, MA) at 37°C with 5% CO2. After 24-h culture, the medium was replaced with serum-free M199 medium and the cells were treated with chicken GnRH1/GnRH2 for the duration (12–48 h) or with increasing doses (0.1–100 nM) of each peptide. The total RNA was then extracted from cultured pituitary cells and the expression of CART and β-actin assayed by qPCR.
“ND” indicates no statistical difference between the two groups. Each data point represents mean ± SEM of four replicates (N = 4). ^**p < 0.01 vs. control; ^#p < 0.01 vs. GnRH1 treatment (in the absence of drug). […] Total ERK2 in cell lysates was also examined and used as internal controls. Note: only a single band for pERK2 or total ERK2 (42 kDa) was detected in cell lysate, because ERK1 gene is lost in chicken genome ([Gerilechaogetu et al., 2009]). The representative sets of independent experimental duplicates are shown here.
“ND” indicates no statistical difference between the two groups. Each data point represents mean ± SEM of four replicates (N = 4). ^**p < 0.01 vs. control. […] The β-actin in cell lysates were also examined and used as internal controls. The representative sets of independent experimental duplicates are shown here.

[3] = test system: cultured chick pituitary cells (CART mRNA); test: CART mRNA expression in cultured chick pituitary cells, qPCR; type: cell-based, chicken; conditions: N = 4
Description: Chicken anterior pituitaries were collected either for cell culture, or for total RNA extraction. Total RNA was extracted from chicken tissues or cultured pituitary cells using RNAzol (Molecular Research Center, Cincinnati, OH) and reversely transcribed using M-MLV reverse transcriptase (TaKaRa). Reverse transcription (RT) samples were then used for quantitative real-time PCR (qPCR) assays to investigate the mRNA expression of target genes, as described in our recent studies ([Cai et al., 2015]; [Mo et al., 2015]).
as §2
The data were analyzed by the Student’s t-test (between two groups) or by one-way ANOVA followed by the Dunnett test in GraphPad Prism 5 (GraphPad Software, San Diego, CA). To validate our results, all experiments were repeated at least three times.
The mRNA levels of CART were normalized by β-actin and expressed as the percentage of respective controls. Each value represents the mean ± SEM of four replicates (N = 4). ^*p < 0.05, ^**p < 0.01 vs. respective control. (E) RT-PCR detection of GnRHR2 expression in cultured chick pituitary cells (three replicates). RT was performed in the presence (+) or absence (−) of reverse transcriptase. Parallel PCR of β-actin was performed to serve as an internal control.

chicken GnRHR1 [4] = test: pGL3-NFAT-RE-luciferase reporter, calcium signaling pathway, CHO cells expressing chicken GnRHR1; type: cell-based; conditions: four replicates
Description: (§3) Based on the reported cDNA sequences of chicken GnRHR1 and GnRHR2 (accession nos.: NM_204653; NM_001012609) ([Sun et al., 2001]; [Shimizu and Bedecarrats, 2006]), gene-specific primers were used to amplify the open reading frame from adult chicken anterior pituitaries using high-fidelity Taq DNA polymerase (TOYOBO, Japan). The amplified PCR products were cloned into the pcDNA3.1 (+) expression vector (Invitrogen) and sequenced. According to our previously established methods, the signaling property of each receptor was examined in Chinese hamster ovary (CHO) cells using pGL3-NFAT-RE-luciferase ([Wang et al., 2012]), pGL4-SRE-luciferase ([Mo et al., 2015]), and pGL3-CRE-luciferase reporter systems ([Wang et al., 2007]).
(§4) Although two GnRH receptors (GnRHR1 and GnRHR2) have been identified in chickens ([Sun et al., 2001]; [Shimizu and Bedecarrats, 2006]; [Joseph et al., 2009]), their downstream signaling pathways have not been fully characterized.
(§5) Figure 5 Activation of chicken GnRHR1 or GnRHR2 expressed in CHO cells by chicken GnRH1 or GnRH2, monitored by pGL3-NFAT-RE-luciferase (A,D), pGL4-SRE-luciferase (B,E), and pGL3-CRE-luciferease (C,F) reporter systems. […] Each data point represents mean ± SEM of four replicates (N = 4).

chicken GnRHR2 [5] = test: pGL3-NFAT-RE-luciferase reporter, calcium signaling pathway, CHO cells expressing chicken GnRHR2; type: cell-based; conditions: four replicates
Description: as §3, §4, §5

chicken GnRHR1 [6] = test: pGL4-SRE-luciferase reporter, MAPK/ERK signaling pathway, CHO cells expressing chicken GnRHR1; type: cell-based; conditions: four replicates
Description: as §3, §4, §5

chicken GnRHR2 [7] = test: pGL4-SRE-luciferase reporter, MAPK/ERK signaling pathway, CHO cells expressing chicken GnRHR2; type: cell-based; conditions: four replicates
Description: as §3, §4, §5

chicken GnRHR1 [8] = test: pGL3-CRE-luciferase reporter, cAMP/PKA signaling pathway, CHO cells expressing chicken GnRHR1; type: cell-based; conditions: four replicates
Description: as §3, §4, §5

chicken GnRHR2 [9] = test: pGL3-CRE-luciferase reporter, cAMP/PKA signaling pathway, CHO cells expressing chicken GnRHR2; type: cell-based; conditions: four replicates
Description: as §3, §4, §5

chicken GnRHR1 [10] = test: three cell-based luciferase reporter assays, GnRHR1 (qualitative); conditions: GnRHR1, CHO cells, calcium, MAPK/ERK and cAMP/PKA reporters
Description: as §3, §4, §5

chicken GnRHR2 [11] = test: three cell-based luciferase reporter assays, GnRHR2 (qualitative)
Description: as §3, §4, §5

[12] = test system: intact anterior pituitaries (CART secretion); test: CART peptide secretion from intact anterior pituitaries incubated in vitro, Western blot; type: cell-based, chicken; conditions: 4 h, intact chick pituitaries, N = 3
Protocol: as §1, with “h. […] Parallel blotting of β-actin and CART in pituitary tissue lysates was also conducted.” for “h.”
The intracellular CART (iCART) and β-actin levels in the pituitary tissue lysate were also examined in parallel. […] Each data point represents mean ± SEM of three replicates (N = 3). ^*p < 0.05; ^**p < 0.01 vs. respective control. […] One representative set of Western blot is shown at the top of each graph.

NCCOB(c1ccccc1)c1ccccc1 [2-APB, 2-aminoethoxydiphenyl borate]
effect on GnRH1-induced CART secretion ([1]; 2-APB 100 μM): significantly inhibited

CN([C@@H](Cc1ccc(OS(=O)(=O)c2cccc3cnccc23)cc1)C(=O)N1CCN(c2ccccc2)CC1)S(=O)(=O)c1cccc2cnccc12 [KN62]
effect on GnRH1-induced CART mRNA expression ([2]; KN62 5 μM): could inhibit GnRH1-induced CART mRNA expression

Cl.c1ccc(C2CCCC2NC2=NCCCCCCCCCCC2)cc1 (stereo not drawn) [MDL12330A]
effect on GnRH1-induced CART mRNA expression ([2]; MDL12330A 20 μM): could abolish GnRH1-induced CART expression

COc1cccc(-c2cc(=O)c3ccccc3o2)c1N [PD98059]
effect on GnRH1-induced CART mRNA expression ([2]; PD98059 100 μM): could inhibit GnRH1-induced CART mRNA expression

COc1ccc2c(c1)CC[C@@H]1[C@@H]2CC[C@]2(C)[C@@H](NCCCCCCN3C(=O)C=CC3=O)CC[C@@H]12 [U73122]
effect on GnRH1-induced CART secretion ([1]; U73122 20 μM): significantly inhibited
effect on GnRH1-induced CART mRNA expression ([2]; U73122 20 μM): could inhibit GnRH1-induced CART mRNA expression

Clc1ccc(C(c2ccc(Cl)cc2)n2cc[n+](CC(OCc3ccc(Cl)cc3Cl)c3ccc(Cl)cc3Cl)c2)cc1 (stereo not drawn) [calmidazolium]
effect on GnRH1-induced CART mRNA expression ([2]; calmidazolium 1 μM): could inhibit GnRH1-induced CART mRNA expression

COc1c(C[C@@H](C)OC(=O)Oc2ccc(O)cc2)c2c3c(C[C@@H](C)OC(=O)c4ccccc4)c(OC)c(=O)c4c(O)cc(OC)c(c5c(OC)cc(O)c(c1=O)c52)c43 [calphostin C]
effect on GnRH1-induced CART mRNA expression ([2]; calphostin C 200 nM): could inhibit GnRH1-induced CART mRNA expression

C=C[C@@]1(C)CC(=O)[C@]2(O)[C@@]3(C)[C@@H](O)CCC(C)(C)[C@@H]3[C@H](O)[C@H](OC(C)=O)[C@@]2(C)O1 [forskolin, reference compound]
effect on CART mRNA expression ([3]; forskolin 2 μM, 24 h): could mimic GnRH1 action on CART expression

COC(=O)C1=C(C)NC(C)=C(C(=O)OC)C1c1ccccc1[N+](=O)[O-] [nifedipine]
effect on GnRH1-induced CART secretion ([1]; nifedipine 5 μM): significantly inhibited
effect on GnRH1-induced CART mRNA expression ([2]; nifedipine 5 μM): could inhibit GnRH1-induced CART mRNA expression

C/C=C(/C)C(=O)O[C@H]1C(C)=C2[C@H]([C@@H]1OC(=O)CCCCCCC)[C@@](C)(OC(C)=O)C[C@H](OC(=O)CCC)[C@@]1(O)[C@H]2OC(=O)[C@@]1(C)O [thapsigargin]
effect on GnRH1-induced CART mRNA expression ([2]; thapsigargin 100 nM): could inhibit GnRH1-induced CART mRNA expression

GnRH2: chicken gonadotropin-releasing hormone 2, synthesized using solid-phase Fmoc chemistry (QHWSHGWYPG; not fully specified; ends and bridges not checked; UniProt P68072 1-10, looked up)
EC50 (chicken GnRHR1 [4]): 0.39 nM
EC50 (chicken GnRHR2 [5]): 0.26 nM
EC50 (chicken GnRHR1 [6]): 3.1 nM
EC50 (chicken GnRHR2 [7]): 2.84 nM
EC50 (chicken GnRHR1 [8]): 0.69 nM
EC50 (chicken GnRHR2 [9]): 0.27 nM
activation of GnRHR1 (luciferase activity) (chicken GnRHR1 [10]): stimulate the luciferase activities dose-dependently; also recorded: potently activated by GnRH2
relative potency at GnRHR2 (chicken GnRHR2 [11]; GnRH2 compared with GnRH1, GnRHR2, CHO cells): slightly more potent than GnRH1
activation of GnRHR2 (luciferase activity) (chicken GnRHR2 [11]; GnRHR2, CHO cells, calcium, MAPK/ERK and cAMP/PKA reporters): stimulate the luciferase activities dose-dependently; also recorded: potently activated by both GnRH1 and GnRH2
secretion of mature CART peptide ([12]; 0–100 nM): potently stimulated the secretion of mature CART peptide
minimal effective concentration, CART secretion [12]: 1 nM
effect on CART mRNA expression, time and dose dependence ([3]; 10 nM time course or 0–100 nM for 48 h, qPCR): induce CART expression in time- and dose-dependent manners
